This is an account of results in patent publication US20090312288A1 (TAKEDA PHARMACEUTICAL COMPANY LIMITED, priority 2008, published 2009).

For orientation: IC50 means the concentration that gives 50% inhibition.

The target in the assay is Aurora B/INCENP (Homo sapiens, UniProt Q96GD4). As to the kind of experiment: Determination of inhibition of AIK: Aurora B/INCENP direct fluorescence polarization (IMAP) assay. The assay is classed as biochemical. As to conditions: 10 uM ATP, 0.8 nM Aurora B/INCENP; values given as bins; read-out: IC50 of Exemplified Compounds Against AIK B. A general note: Polarisation of emitted light reports the rotation of a fluorescent probe.
Sequence of Aurora B/INCENP (Q96GD4 whole entry): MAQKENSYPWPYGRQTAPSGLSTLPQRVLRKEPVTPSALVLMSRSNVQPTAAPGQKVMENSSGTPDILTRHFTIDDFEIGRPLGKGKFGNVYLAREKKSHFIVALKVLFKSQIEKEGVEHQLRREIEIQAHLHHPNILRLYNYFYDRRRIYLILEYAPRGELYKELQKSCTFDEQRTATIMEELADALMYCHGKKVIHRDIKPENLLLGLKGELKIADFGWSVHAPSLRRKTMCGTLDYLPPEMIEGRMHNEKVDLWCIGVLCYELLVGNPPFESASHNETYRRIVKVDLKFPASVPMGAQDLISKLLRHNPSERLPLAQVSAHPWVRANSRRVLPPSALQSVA
Sequence of Aurora B/INCENP (Q9NQS7 whole entry partner): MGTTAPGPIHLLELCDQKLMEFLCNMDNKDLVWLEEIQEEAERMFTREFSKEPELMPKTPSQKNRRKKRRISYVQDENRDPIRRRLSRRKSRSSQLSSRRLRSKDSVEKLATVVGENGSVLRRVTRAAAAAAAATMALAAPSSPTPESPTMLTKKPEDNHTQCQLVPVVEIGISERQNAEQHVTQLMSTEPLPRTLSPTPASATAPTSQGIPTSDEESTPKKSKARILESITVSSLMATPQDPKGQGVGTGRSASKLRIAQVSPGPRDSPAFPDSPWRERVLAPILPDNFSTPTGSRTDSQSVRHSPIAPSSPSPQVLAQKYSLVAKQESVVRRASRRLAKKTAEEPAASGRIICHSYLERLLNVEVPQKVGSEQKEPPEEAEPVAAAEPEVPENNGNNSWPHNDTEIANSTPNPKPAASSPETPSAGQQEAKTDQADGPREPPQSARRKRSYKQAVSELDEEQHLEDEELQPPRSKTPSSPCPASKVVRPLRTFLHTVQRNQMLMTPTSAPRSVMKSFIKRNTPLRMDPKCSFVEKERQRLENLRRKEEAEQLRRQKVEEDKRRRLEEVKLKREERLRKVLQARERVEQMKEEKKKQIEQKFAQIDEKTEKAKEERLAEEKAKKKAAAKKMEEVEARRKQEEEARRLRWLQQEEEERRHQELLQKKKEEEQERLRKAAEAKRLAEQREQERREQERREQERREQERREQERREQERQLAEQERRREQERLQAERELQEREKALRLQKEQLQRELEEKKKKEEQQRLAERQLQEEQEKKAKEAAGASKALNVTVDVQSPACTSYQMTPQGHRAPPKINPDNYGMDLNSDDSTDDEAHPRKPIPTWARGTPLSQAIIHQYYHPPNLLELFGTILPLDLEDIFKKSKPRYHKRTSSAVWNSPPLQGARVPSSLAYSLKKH
For `CCS(=O)(=O)c1cccc(-c2ccc(OCCN(C)C)c3[nH]c4ncc(Cl)cc4c23)c1` [Compound 222, 2-(3-chloro-5-(3-(ethylsulfonyl)phenyl)-9H-pyrido[2,3-b]indol-8-yloxy)-N,N-dimethylethanamine], the half-inhibitory concentration (IC50) lay in the range of 4 to 5.5 nM.

In the case of `CCS(=O)(=O)c1cccc(-c2ccc(OCCN3CCCC3)c3[nH]c4ncc(Cl)cc4c23)c1` [Compound 223, 3-chloro-5-(3-(ethylsulfonyl)phenyl)-8-(2-(pyrrolidin-1-yl)ethoxy)-9H-pyrido[2,3-b]indole], the IC50 fell in the range of 5.6 to 8.5 nM.

For the compound `CCS(=O)(=O)c1cccc(-c2ccc(OCCN3CCN(C)CC3)c3[nH]c4ncc(Cl)cc4c23)c1` [Compound 224, 3-chloro-5-(3-(ethylsulfonyl)phenyl)-8-(2-(4-methylpiperazin-1-yl)ethoxy)-9H-pyrido[2,3-b]indole], the IC50 lay within 5.6 to 8.5 nM.

With `CCS(=O)(=O)c1cccc(-c2ccc(OCCO)c3[nH]c4ncc(Cl)cc4c23)c1` [Compound 225, 2-(3-chloro-5-(3-(ethylsulfonyl)phenyl)-9H-pyrido[2,3-b]indol-8-yloxy)ethanol], the IC50 lay within 4 to 5.5 nM.

As to `CCS(=O)(=O)c1cccc(-c2ccc(OCCOC(=O)[C@H](C)N)c3[nH]c4ncc(C)cc4c23)c1` [Compound 226, (S)-2-(5-(3-(ethylsulfonyl)phenyl)-3-methyl-9H-pyrido[2,3-b]indol-8-yloxy)ethyl 2-aminopropanoate], the concentration for half-maximal inhibition (IC50) lay within 5.6 to 8.5 nM.

On to `CCS(=O)(=O)c1cccc(-c2ccc(OCCCOC(=O)[C@H](C)N)c3[nH]c4ncc(C)cc4c23)c1` [Compound 227, (S)-3-(5-(3-(ethylsulfonyl)phenyl)-3-methyl-9H-pyrido[2,3-b]indol-8-yloxy)propyl 2-aminopropanoate], for which the IC50 was in the range of 5.6 to 8.5 nM.

For the compound `Cc1cnc2[nH]c3c(C)c(C(=O)NC4CCN(C)CC4)cc(-c4cccc(C(=O)NC5CC5)c4)c3c2c1` [Compound 228, 5-(3-(cyclopropylcarbamoyl)phenyl)-3,8-dimethyl-N-(1-methylpiperidin-4-yl)-9H-pyrido[2,3-b]indole-7-carboxamide], the IC50 is over 13 nM.

For `CCS(=O)(=O)c1cccc(-c2ccc(OC[C@@H](O)CO)c3[nH]c4ncc(C)cc4c23)c1` [Compound 230, (S)-3-(5-(3-(ethylsulfonyl)phenyl)-3-methyl-9H-pyrido[2,3-b]indol-8-yloxy)propane-1,2-diol], the IC50 was in the range of 4 to 5.5 nM.

`CCS(=O)(=O)c1cccc(-c2ccc(OC[C@H](O)CO)c3[nH]c4ncc(C)cc4c23)c1` [Compound 231, (R)-3-(5-(3-(ethylsulfonyl)phenyl)-3-methyl-9H-pyrido[2,3-b]indol-8-yloxy)propane-1,2-diol]: the IC50 was under 4 nM.

For `CCS(=O)(=O)c1cccc(-c2ccc(OC[C@H](O)CN(C)C)c3[nH]c4ncc(C)cc4c23)c1` [Compound 232, (R)-1-(dimethylamino)-3-(5-(3-(ethylsulfonyl)phenyl)-3-methyl-9H-pyrido[2,3-b]indol-8-yloxy)propan-2-ol], the IC50 fell in the range of 5.6 to 8.5 nM.

Regarding `CCS(=O)(=O)c1cccc(-c2ccc(OC[C@@H](C)O)c3[nH]c4ncc(C)cc4c23)c1` [Compound 233, (R)-1-(5-(3-(ethylsulfonyl)phenyl)-3-methyl-9H-pyrido[2,3-b]indol-8-yloxy)propan-2-ol], the IC50 fell in the range of 5.6 to 8.5 nM.

As to `CCS(=O)(=O)c1cccc(-c2ccc(OC[C@H](C)O)c3[nH]c4ncc(C)cc4c23)c1` [Compound 234, (S)-1-(5-(3-(ethylsulfonyl)phenyl)-3-methyl-9H-pyrido[2,3-b]indol-8-yloxy)propan-2-ol], the IC50 was in the range of 4 to 5.5 nM.

On to `CCS(=O)(=O)c1cccc(-c2cc(NC(=O)CCN(C)C)c(OC)c3[nH]c4ncc(C)cc4c23)c1` [Compound 240, 3-(dimethylamino)-N-(5-(3-(ethylsulfonyl)phenyl)-8-methoxy-3-methyl-9H-pyrido[2,3-b]indol-7-yl)propanamide], for which the concentration for half-maximal inhibition (IC50) was 5.6 to 8.5 nM.

As for `CCS(=O)(=O)c1cccc(-c2cc(NC(=O)C3CC3)c(OC)c3[nH]c4ncc(C)cc4c23)c1` [Compound 242, N-(5-(3-(ethylsulfonyl)phenyl)-8-methoxy-3-methyl-9H-pyrido[2,3-b]indol-7-yl)-cyclopropanecarboxamide], the IC50 was in the range of 8.6 to 13 nM.

Take `CCS(=O)(=O)c1cccc(-c2cc(NC(=O)C3CCN(C(C)=O)CC3)c(OC)c3[nH]c4ncc(C)cc4c23)c1` [Compound 243, 1-acetyl-N-(5-(3-(ethylsulfonyl)phenyl)-8-methoxy-3-methyl-9H-pyrido[2,3-b]indol-7-yl)piperidine-4-carboxamide]: the concentration for half-maximal inhibition (IC50) was 8.6 to 13 nM.

On to `CCS(=O)(=O)c1cccc(-c2cc(Cl)c(OC)c3[nH]c4ncc(C)cc4c23)c1` [Compound 246, 7-chloro-5-(3-(ethylsulfonyl)phenyl)-8-methoxy-3-methyl-9H-pyrido[2,3-b]indole], for which the IC50 is 5.6 to 8.5 nM.

`CCS(=O)(=O)c1cccc(-c2cc(Cl)c(OCCCO)c3[nH]c4ncc(C)cc4c23)c1` [Compound 248, 3-(7-chloro-5-(3-(ethylsulfonyl)phenyl)-3-methyl-9H-pyrido[2,3-b]indol-8-yloxy)propan-1-ol]: the IC50 is over 13 nM.

Take `CCS(=O)(=O)c1cccc(-c2cc(N(C)C(=O)C3CC3)c(OC)c3[nH]c4ncc(C)cc4c23)c1` [Compound 253, N-(5-(3-(ethylsulfonyl)phenyl)-8-methoxy-3-methyl-9H-pyrido[2,3-b]indol-7-yl)-N-methylcyclopropanecarboxamide]: the IC50 was over 13 nM.

In the case of `CCS(=O)(=O)c1cccc(-c2cc(N(C)C(=O)CCN(C)C)c(OC)c3[nH]c4ncc(C)cc4c23)c1` [Compound 254, 3-(dimethylamino)-N-(5-(3-(ethylsulfonyl)phenyl)-8-methoxy-3-methyl-9H-pyrido[2,3-b]indol-7-yl)-N-methylpropanamide], the IC50 is over 13 nM.

As for `CCS(=O)(=O)c1cccc(-c2ccc(OCCN3CCOCC3)c3[nH]c4ncc(Cl)cc4c23)c1` [Compound 255, 4-(2-(3-chloro-5-(3-(ethylsulfonyl)phenyl)-9H-pyrido[2,3-b]indol-8-yloxy)ethyl)morpholine], the concentration for half-maximal inhibition (IC50) is over 13 nM.

For `CCS(=O)(=O)c1cccc(-c2ccc(OCCC#N)c3[nH]c4ncc(Cl)cc4c23)c1` [Compound 256, 3-(3-chloro-5-(3-(ethylsulfonyl)phenyl)-9H-pyrido[2,3-b]indol-8-yloxy)propanenitrile], the IC50 is over 13 nM.

For the compound `CCS(=O)(=O)c1cccc(-c2ccc(OCCCN(C)C)c3[nH]c4ncc(C(F)(F)F)cc4c23)c1` [Compound 258, 3-(5-(3-(ethylsulfonyl)phenyl)-3-(trifluoromethyl)-9H-pyrido[2,3-b]indol-8-yloxy)-N,N-dimethylpropan-1-amine], the IC50 was over 13 nM.

For `COc1ccc(-c2cccc(C(=O)N3CCOCC3)c2)c2c1[nH]c1ncc(C)cc12` [Compound 259, (3-(8-methoxy-3-methyl-9H-pyrido[2,3-b]indol-5-yl)phenyl)(morpholino)methanone], the IC50 was over 13 nM.

Regarding `CONC(=O)c1cccc(-c2ccc(OC)c3[nH]c4ncc(C)cc4c23)c1` [Compound 260, N-methoxy-3-(8-methoxy-3-methyl-9H-pyrido[2,3-b]indol-5-yl)benzamide], the half-maximal inhibitory concentration (IC50) is over 13 nM.

In the case of `CCN(CC)CCNC(=O)c1cc(-c2cccc(S(=O)(=O)CC)c2)c2c([nH]c3ncc(C)cc32)c1C` [Compound 262, N-(2-(diethylamino)ethyl)-5-(3-(ethylsulfonyl)phenyl)-3,8-dimethyl-9H-pyrido[2,3-b]indole-7-carboxamide], the IC50 fell in the range of 8.6 to 13 nM.

As to `CCN(CCO)CCCOc1ccc(-c2cccc(S(=O)(=O)C3CC3)c2)c2c1[nH]c1ncc(C)cc12` [Compound 270, 2-((3-(5-(3-(cyclopropylsulfonyl)phenyl)-3-methyl-9H-pyrido[2,3-b]indol-8-yloxy)propyl)(ethyl)amino)ethanol], the IC50 was 4 to 5.5 nM.

On to `CCN(CCCOc1ccc(-c2cccc(S(=O)(=O)C3CC3)c2)c2c1[nH]c1ncc(C)cc12)CCOP(=O)(O)O` [Compound 272, 2-((3-(5-(3-(cyclopropylsulfonyl)phenyl)-3-methyl-9H-pyrido[2,3-b]indol-8-yloxy)propyl)(ethyl)amino)ethyl dihydrogen phosphate], for which the IC50 lay in the range of 5.6 to 8.5 nM.

In the case of `CCN(CCO)CCCOc1ccc(-c2cccc(C(=O)NC3CC3)c2)c2c1[nH]c1ncc(C)cc12` [Compound 273, N-cyclopropyl-3-(8-(3-(ethyl(2-hydroxyethyl)amino)propoxy)-3-methyl-9H-pyrido[2,3-b]indol-5-yl)benzamide], the IC50 was 5.6 to 8.5 nM.

On to `CCN(CCCOc1ccc(-c2cccc(C(=O)NC3CC3)c2)c2c1[nH]c1ncc(C)cc12)CCOP(=O)(O)O` [Compound 275, 2-((3-(5-(3-(cyclopropylcarbamoyl)phenyl)-3-methyl-9H-pyrido[2,3-b]indol-8-yloxy)propyl)(ethyl)amino)ethyl dihydrogen phosphate], for which the IC50 lay in the range of 5.6 to 8.5 nM.

For the compound `CCN(CCO)CCCOc1ccc(-c2cccc(S(=O)(=O)CC)c2)c2c1[nH]c1ncc(C)cc12` [Compound 276, 2-(ethyl(3-(5-(3-(ethylsulfonyl)phenyl)-3-methyl-9H-pyrido[2,3-b]indol-8-yloxy)propyl)amino)ethanol], the IC50 was in the range of 5.6 to 8.5 nM.

For the compound `CCN(CCCOc1ccc(-c2cccc(S(=O)(=O)CC)c2)c2c1[nH]c1ncc(C)cc12)CCOP(=O)(O)O` [Compound 278, 2-(ethyl(3-(5-(3-(ethylsulfonyl)phenyl)-3-methyl-9H-pyrido[2,3-b]indol-8-yloxy)propyl)amino)ethyl dihydrogen phosphate], the IC50 lay within 4 to 5.5 nM.

With `CN1CCC(COc2ccc(-c3cccc(C(=O)NC4CC4)c3)c3c2[nH]c2ncc(Cl)cc23)CC1` [Compound 285, 3-(3-chloro-8-((1-methylpiperidin-4-yl)methoxy)-9H-pyrido[2,3-b]indol-5-yl)-N-cyclopropylbenzamide], the IC50 fell in the range of 8.6 to 13 nM.

As to `CN1CCC(COc2ccc(-c3cccc(S(=O)(=O)C4CC4)c3)c3c2[nH]c2ncc(Cl)cc23)CC1` [Compound 286, 3-chloro-5-(3-(cyclopropylsulfonyl)phenyl)-8-((1-methylpiperidin-4-yl)methoxy)-9H-pyrido[2,3-b]indole], the IC50 is 8.6 to 13 nM.
